Patent US20060019241A1, “Na+ and CI-coupled transport system for endogenous opioid peptides” (priority 2004, published 2006)
“Also recorded” adds a separate entry of the source.

Key:
Type in all cases: cell-based, human
[1] = system: enkephalin/endorphin transport system in SK—N—SH cells; experiment: [^3H]deltorphin II uptake in SK—N—SH cells, effect of peptides and amino acids; details: for Deltorphin II uptake / effect on [^3H]deltorphin II uptake (in words): NaCl, 30 minutes; for Deltorphin II uptake: compound 1 mM; for Ki: read-out: Ki for inhibition of deltorphin II uptake, dose-response studies; for effect on [^3H]deltorphin II uptake (in words): test substance 1 mM; for IC50: read-out: affinity for the transport system (concentration-dependent inhibition of [^3H]deltorphin II uptake), [^3H]deltorphin II 25 nM
Protocol: (§1) Uptake measurements in control ARPE-19 cells and Tat-ARPE-19 cells. Control ARPE-19 cells and Tat-ARPE-19 cells were maintained in 75-cm^2 culture flasks in Dulbecco's modified Eagle's medium/F12 medium (1:1, volume/volume (v/v)) in the presence of fetal bovine serum (10%) and G418 (100 μg/ml). For uptake measurements, cells were released by trypsin treatment and seeded in 24-well culture plates at an initial density of 0.1×10^6 cells/well. The culture medium was replaced with fresh medium on the second day following the initial seeding and uptake measurements were made on the third day. […] After incubation at 37° C. for a desired time, uptake was terminated by the removal of the medium and washing of the cells with ice-cold uptake buffer. The cells were then dissolved in 1% SDS in 0.2 M NaOH and used for measurement of radioactivity. The uptake buffer in most experiments was 25 mM Hepes/Tris (pH 7.5), containing 140 mM NaCl, 5.4 mM KCl, 1.8 mM CaCl2, 0.8 mM MgSO4 and 5 mM glucose.
Since enkephalins and endorphins are relevant to pain perception and to further provide evidence in support of a role for the transport system in opioidergic neurotransmission, the human neuronal cell line SK—N—SH was tested for expression of the transport system. […] Unless otherwise specified, procedures are as detailed in Example 1.
The concentration of enkephalins and dynorphins was 1 mM.
Finally, the relative affinity of various enkephalins and dynorphins for the transport system in SK—N—SH cells was determined.
To the further characterize the opioid transport of the present invention, various specific peptides that act as positive modulators of the enkephalin/endorphin transport system in the human neuronal cell line SK—N—SH were identified. Unless otherwise specified, procedures are as detailed in Example 1. […] Uptake was measured in the presence of NaCl for 30 minutes. The concentration of the dipeptides was 1 mM.
Uptake was measured in the presence of NaCl for 30 minutes. The concentration of the tripeptides was 1 mM.
Unless otherwise specified, procedures are as described in more detail in Example 1.
The dose-response relationship for the inhibition of the enkephalin/endorphin transport system by L-Lysine and its methyl and ethyl esters is shown in FIG. 15.

[2] = system: deltorphin II transport system in control ARPE-19 cells; experiment: Inhibition of [^3H]deltorphin II uptake in control ARPE-19 cells; details: [^3H]deltorphin II 50 nM, 30 minutes, NaCl, peptide/antagonist 1 mM; for [^3H] Deltorphin II uptake: control ARPE-19 cells (pcDNA vector alone); for [^3H] Deltorphin II uptake (%) of control: control ARPE-19 cells, control = 100
Description: (§2) Stable transfection of ARPE-19 cells with pcDNA-Tat cDNA. The pGEM2-Tat cDNA construct contained as the insert a 295 basepair (bp) fragment encoding the first exon of HIV-1 Tat gene joined to a 145 bp pET3A transcription terminator. The entire insert (440 bp) was removed from the construct by digestion with PstI and EcoRI and ligated into the multiple cloning region of pcDNA3.1 (−) vector at PstI/EcoRI site so that the insert is downstream of the cytomegalovirus (CMV) promoter. The resultant construct was sequenced to confirm the orientation of the insert. This construct was electroporated into ARPE-19 cells and the stably transfected cell clones were isolated in the presence of Geneticin (G418). To serve as a control, empty pcDNA3.1 vector was electroporated into ARPE-19 cells in an identical manner and the clones harboring the vector were selected by G418 resistance.
as §1
(§3) Substrate specificity of the deltorphin transport system. […] These peptides consisted of 4-13 amino acids.

[3] = system: deltorphin II transport system in Tat-ARPE-19 cells; experiment: Inhibition of [^3H]deltorphin II uptake in Tat-ARPE-19 cells; details: for [^3H] Deltorphin II uptake / [^3H] Deltorphin II uptake (%) of control: Tat-ARPE-19 cells, [^3H]deltorphin II 50 nM, 30 minutes, NaCl, inhibitor 1 mM; for [^3H] Deltorphin II uptake (%) of control: control = 100
Description: as §2, §1
When the influence of Na^+ on the uptake process was investigated, the concentration of NaCl in the uptake buffer was adjusted, as desired, by isoosmotically replacing NaCl with N-methyl-D-glucamine chloride. To assess the influence of Cl^− on the uptake process, the composition of the uptake medium was modified by replacing KCl and CaCl2 with equimolar concentrations of potassium gluconate and calcium gluconate and the concentration of NaCl was adjusted, as desired, by iso-osmotically replacing NaCl with sodium gluconate. Saturation kinetics were analysed by fitting the data to the Michaelis-Menten equation. The Michaelis-Menten constant, Kt, was calculated by non-linear regression analysis and then confirmed by linear regression. Na^+- and Cl^−-activation kinetics were analyzed by fitting the data to the Hill equation and the Hill coefficients for Na^+ and Cl^− (h; the number of Na^+ and Cl^− ions involved in the activation process) and the K0.5 values (the concentration of Na^+ and Cl^−-needed for half-maximal activation) were determined from the analysis. Again, these constants were first calculated by non-linear regression methods and subsequently confirmed by linear regression methods. Experiments were repeated three times in duplicate and the results are given as means±S.E.M.
as §3
Relative affinities of endogenous opioid peptides for the transport system.

## CC(=O)NCCCC[C@H](N)C(=O)O [ε-N-acetyl-L-Lys]
[1]; [^3H]deltorphin II 25 nM
  Deltorphin II uptake: 2.38 ± 0.13 pmol/30 min/mg protein

## CCOC(=O)[C@@H](N)CCCCN [Lys-ethyl ester, L-lysylethyl ester]
[1]; [^3H]deltorphin II 25 nM
  Deltorphin II uptake: 0.55 ± 0.05 pmol/30 min/mg protein
[1]
  Ki: 154 ± 34 µM

## NCCCC(=O)O [GABA]
[1]; [^3H]deltorphin II 25 nM
  Deltorphin II uptake: 2.62 ± 0.13 pmol/30 min/mg protein

## CC(=O)N[C@@H](CCCCN)C(=O)O [α-N-acetyl-L-Lys]
[1]; [^3H]deltorphin II 25 nM
  Deltorphin II uptake: 2.82 ± 0.08 pmol/30 min/mg protein

## Try-Gly-Gly
[1]; [^3H]deltorphin II 25 nM
  effect on [^3H]deltorphin II uptake (in words): ability to stimulate the uptake

## O=C1CC[C@@]2(O)[C@H]3Cc4ccc(O)c5c4[C@@]2(CCN3CC2CC2)[C@H]1O5 [Naltrexone]
[2]
  [^3H] Deltorphin II uptake: 1.12 ± 0.02 pmol/mg protein/30 min
  [^3H] Deltorphin II uptake (%) of control: 104%

## CC(C)C[C@H](N)C(=O)O [L-leucine]
[1]; [^3H]deltorphin II 25 nM
  effect on [^3H]deltorphin II uptake (in words): significant inhibition

## Tyr-Gly-Gly-Phe-Leu-Arg-Arg-IIe-Arg-Pro-Lys-Leu-Lys (YGGFLRRIRPKLK) [Dynorphin A (1-13)]
[3]; RPE cells
  fold higher affinity than the shorter dynorphins (six to nine amino acids): ~10 fold
[3]
  [^3H] Deltorphin II uptake: 0.07 ± 0.01 pmol/mg protein/30 min
  [^3H] Deltorphin II uptake (%) of control: 1%
[2]
  [^3H] Deltorphin II uptake: 0.04 ± 0.001 pmol/mg protein/30 min
  [^3H] Deltorphin II uptake (%) of control: 4%
[1]
  IC50: 150 ± 10 nM

## NCCCC[C@H](N)C(N)=O [L-Lys-amide]
[1]; [^3H]deltorphin II 25 nM
  Deltorphin II uptake: 2.92 ± 0.09 pmol/30 min/mg protein

## C[N+](C)(C)CCCC[C@H](N)C(=O)O [Trimethyl-L-Lys]
[1]; [^3H]deltorphin II 25 nM
  Deltorphin II uptake: 2.39 ± 0.11 pmol/30 min/mg protein

## Gly-Gly-Ile
[1]; 1 mM Gly-Gly-Ile
  influence on kinetic parameters of deltorphin II uptake: increasing the maximal velocity of the system without affecting the affinity for its substrate
[1]; [^3H]deltorphin II 25 nM
  effect on [^3H]deltorphin II uptake (in words): ability to stimulate the uptake; also recorded: stimulated
[1]; [^3H]deltorphin II 25 nM, peptide 1 mM
  stimulation of deltorphin II uptake: 6- to 8 fold

## NCCC[C@H](N)C(=O)O [L-Ornitine]
[1]; [^3H]deltorphin II 25 nM
  Deltorphin II uptake: 1.87 ± 0.08 pmol/30 min/mg protein

## C[N+](C)(C)C[C@H](O)CC(=O)[O-] [L-Carnitine]
[1]; [^3H]deltorphin II 25 nM
  Deltorphin II uptake: 2.34 ± 0.12 pmol/30 min/mg protein

## COC(=O)[C@@H](N)CCCCN [L-Lys-methyl ester, L-lysylmethyl ester]
[1]; [^3H]deltorphin II 25 nM
  Deltorphin II uptake: 0.28 ± 0.01 pmol/30 min/mg protein
[1]
  Ki: 169 ± 9 µM

## CC(C)[C@H](N)C(=O)O [L-valine]
[1]; [^3H]deltorphin II 25 nM
  effect on [^3H]deltorphin II uptake (in words): significant inhibition

## C[C@@H](N)C(=O)O [D-alanine]
[1]; [^3H]deltorphin II 25 nM
  effect on [^3H]deltorphin II uptake (in words): significant inhibition

## NC(=O)NCCC[C@H](N)C(=O)O [L-Citrulline]
[1]; [^3H]deltorphin II 25 nM
  Deltorphin II uptake: 2.18 ± 0.06 pmol/30 min/mg protein

## YGGFLR [Dynorphin A (1-6), Tyr-Gly-Gly-Phe-Leu-Arg]
[3]
  [^3H] Deltorphin II uptake: 0.12 ± 0.00 pmol/mg protein/30 min
  [^3H] Deltorphin II uptake (%) of control: 2%
[2]
  [^3H] Deltorphin II uptake: 0.06 ± 0.001 pmol/mg protein/30 min
  [^3H] Deltorphin II uptake (%) of control: 5%
[1]
  IC50: 3500 ± 400 nM
